Measured values as given in patent publication US20230174561A1, “IONIC COMPOUND AND COMPOSITION THEREOF FOR HYDROPHOBIC PROTEIN EXTRACTION; AND ANTI-NONSPECIFIC PROTEIN ADSORPTION ZWITTERIONIC COMPOUND AND ELEMENT WITH ANTI-NONSPECIFIC PROTEIN ADSORPTION LAYER COMPRISING THE SAME” (priority 2021, published 2023).
Read-outs that look alike come from different tables or passages of the source.

How the values were obtained:
gliadin = experiment: Solubility of gliadin in ionic solutions (excess gliadin, Wheat/Gluten (Gliadin) ELISA Kit); assay type: physicochemical
Description: Gliadin is a hydrophobic protein present in gluten of wheat. Unless specifically stated, gliadin (G3375, Sigma-Aldrich; CAS No. 9007-90-3) or was used in the following tests.
First of all, ionic solutions of [DMePIm][OMs] with a concentration of 0.1 wt %, 1 wt %, 2 wt %, 5 wt % and 10 wt % in water were prepared. 3 grams (g) of gliadin (excess amount) was added into 10 mL of each [DMePIm][OMs] ionic solution, mixed homogenously and stood still for 5 min to give sample solutions for Test Example 1. All sample solutions were centrifuged at 8500 rpm for 3 min and filtered with a filter with 0.22 μm pore size. Water (0 wt %) was used as the control group. After that, Wheat/Gluten (Gliadin) ELISA Kit (Crystal chem, AOAC No. 011804) was used to determine the concentration and solubility of gliadin. Since the examination of the Wheat/Gluten (Gliadin) ELISA Kit is about 100 ppm, the gliadin concentration was determined by diluted sample solutions with at least 50-fold dilution by the corresponding ionic solution, in order to calculate the gliadin concentration of the sample solutions.
Similar with Test Example 1, except that 3 g of gliadin was added into 10 mL of 1 wt % ionic solution of [DMeIm][OMs](value “a” of Formula I is 0), [TMeIm][OMs] (a=1), [DMePrIm][OMs] (a=3), [DMePIm][OMs] (a=5), [DMeHpIm][OMs] (a=7), [DMeNnIm][OMs] (a=9) or [DMeDdIm][OMs] (a=12). […] (a=5), [DMeHpIm][OMs] (a=7), [DMeNnIm][OMs] ([…]) and [DMeDdIm][OMs] (a=12) ionic solutions, in which the corresponding groups attached on 3-position of the 1,2-dimethyl imidazolium had different carbon numbers (value “a” of Formula I) of 5, 7, 9 and 12, respectively. The [DMeDdIm][OMs]
Similar with Test Example 1, except that 3 g of gliadin was respectively added into 10 mL of 1 wt % ionic solutions of [DMePIm][Cl], [DMePIm][F], [DMePIm][OMs], [DMePIm][NO3], [DMePIm][H2PO4] and [DMePIm][HSO4].

[1] = tested on: Mouse N2a neuroblastoma cells (N2a cells); experiment: Biocompatibility, XTT cell survival test; assay type: cell-based; details: 0.1, 1, 2, 5 and 10 wt % in medium, 6 h, FIG. 7
Description: Mouse N2a neuroblastoma cells (N2a cells) were cultured and maintained in DMEM High Glucose with L-glutamine and sodium pyruvate (DMEM-HPA-P10, Capricorn Scientific) containing 10% fetal bovine serum (FBS). The N2a cells were seeded in a 6-well plate with a density of 2×10^5 cells/well overnight. Then the medium was replaced with a testing DMEM High Glucose medium containing 0.1 wt %, 1 wt %, 2 wt %, 5 wt % and 10 wt % of [DMePIm][OMs] and the cells were incubated in an incubator (37° C., 5% CO2 humidified atmosphere) for 6 h. The testing medium was removed, the cells were washed, and new DMEM High Glucose containing 10% FBS was added and incubated for another 12 h. After that, the cells were subjected to XTT test (X12223, purchased from Thermo Fisher) for determining cell survival rate.

In the case of `CCCCCCCCCCCC[n+]1ccn(C)c1C.CS(=O)(=O)[O-]` [[DMeDdIm][OMs], [1,2-dimethyl, 3-dodecyl imidazolium][methanesulfonyl]], the “viscosity of ionic solution” value (gliadin; 1 wt % ionic solution) is reported as “higher viscosity”.
`CCCCCCC[n+]1ccn(C)c1C.CS(=O)(=O)[O-]` [[DMeHpIm][OMs], [1,2-dimethyl, 3-heptyl imidazolium][methanesulfonyl]] was tested, and the “solubility of gliadin in ionic solutions with different cations” value (shortened to “solubility … with different cations”) (gliadin) was “higher solubility”.
With `CCCCCCCCC[n+]1ccn(C)c1C.CS(=O)(=O)[O-]` [[DMeNnIm][OMs], [1,2-dimethyl, 3-nonyl imidazolium][methanesulfonyl]] the “solubility … with different cations” value (gliadin) was “higher solubility”.
`CCCCC[n+]1ccn(C)c1C` [[DMePIm][OMs], [1,2-dimethyl, 3-pentyl imidazolium][methanesulfonyl]] was tested, and the “concentration of gliadin over time” value (gliadin; 1 wt % ionic solution, 1-30 min, FIG. 2) was “reached its maximum solubility shortly”, the “solubility … with different cations” value (gliadin; 1 wt % ionic solution, FIG. 3) was “higher solubility” and the “solubility of gliadin in ionic solutions with different anions” value (gliadin; 1 wt % ionic solution, FIG. 4) was “greatest solubility”. The “survival rates of cells” value [1] was “high”.
